What is called AC50 is the midpoint of the concentration-response curve, whichever way the signal moves.

The test system of this experiment is SK-MEL-5 TRPM1-promoter luciferase reporter, 24 h. Nature of the experiment: TRPM1 promoter luciferase signal decrease, dose response, MITF inhibitor project, cell-based, SK-MEL-5, cherry-picked, set 4 (AID 493102).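 Further: actives lower the luciferase signal so the potency reflects inhibition of reporter expression.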
Take `CC(Oc1ccc(F)cc1)C(=O)Nc1nc(-c2ccccn2)cs1` (stereo not given): the AC50 was 9.42 µM. Consider `O=C(Nc1ccc(N2CCOCC2)cc1)c1cnsn1`, for which the AC50 is 3.05 µM.

Take `Cc1ccc(-c2nc(C(=O)NCCCN(C)C)cc3c2[nH]c2ccccc23)cc1`: the AC50 is 11.2 µM. The value for `Cc1ccccc1Cn1c(=N)n(CC(=O)c2ccc([N+](=O)[O-])cc2)c2ccccc21` was 5.63 µM.

For the compound `CS(=O)(=O)c1ccc(C(=O)OCC(=O)NCc2cccs2)cc1[N+](=O)[O-]`, the AC50 is 11.7 µM.

Regarding `Cc1ccc2nc(C)cc(Nc3ccc([N+](=O)[O-])cc3)c2c1`, the half-maximal activity concentration (AC50) was 5.88 µM.

With `Oc1c(CN2CCCC2)cc(COCc2ccccc2)c2cccnc12`, the AC50 is 6.15 µM. The value for `COc1ccc(C(=O)/C=C/C(=O)N(CC(=O)NC2CCCCC2)Cc2ccc(F)cc2)c(O)c1` was 5.45 µM; that for `CC1CCC(C(C)C)C(OC(=O)Cn2c(-c3ccc(F)cc3)[n+](C)c3ccccc32)C1` (stereo not given) was 5.57 µM; that for `O=C(O)c1cccc(NC(=O)c2cccc(NC(=O)C3CCCO3)c2)c1` (stereo not given) was 21.2 µM. In the case of `Cc1ccc(NC(=O)c2ccc([N+](=O)[O-])s2)cc1S(=O)(=O)N1CCOCC1` it was 3.78 µM; in that of `Cc1cc(C(=O)CSc2nnc3ccccn23)c(C)n1-c1ccccc1`, 2.08 µM.

Take `CN(C)C1CCN(Cc2cc(COCc3ccccc3)c3cccnc3c2O)C1` (stereo not given): the AC50 is 9.99 µM. As to `C/C(=N\NC(=O)C(C)Oc1ccc([N+](=O)[O-])cc1)c1ccccn1` (stereo not given), the AC50 was 2.39 µM. In the case of `Cc1nn(-c2ccccc2Cl)c(Cl)c1/C=N/Nc1cccc(C(=O)O)c1` it was 5.5 µM. With `CC(=O)CSc1ccc(-c2nc3cc(C)c(C)cc3[nH]2)cn1`, the AC50 is 3.67 µM. In the case of `CCOC(=O)c1ccc(NC(=O)c2nc(S(=O)(=O)Cc3ccccc3)ncc2Cl)cc1` it was 9.92 µM; in that of `CCOc1cc(/C=C2/NC(=S)NC2=O)ccc1OCc1ccc([N+](=O)[O-])cc1`, 8.19 µM.

For the compound `CN(C)c1nc(C=C(C#N)C#N)c(Cl)n1-c1ccc(F)cc1`, the AC50 is 3.92 µM. The value for `Oc1ccc(CNc2ccccc2F)c2cccnc12` was 15.1 µM; that for `Cn1nnnc1Sc1ncnc2scc(-c3ccc(F)cc3)c12` was 8.1 µM; that for `COc1ccc(-c2cc(-c3ccccc3)[n+](C)c(-c3ccccc3)c2)cc1` was 3.2 µM. As for `COc1ccc(CCn2c(=S)[nH]c3cc(C(=O)NCc4ccco4)ccc3c2=O)cc1OC`, the AC50 is 17.7 µM. The value for `O=C(NCc1cccs1)c1nc2c(nnn2Cc2ccccc2Cl)c(=O)[nH]1` was 6.66 µM; that for `Cn1cc([N+](=O)[O-])c(C(=O)Nc2nc(-c3ccc(Cl)cc3)cs2)n1` was 10.5 µM; that for `CCN1CCN(C2=C(NS(=O)(=O)c3ccc(C)cc3)C(=O)c3ccccc3C2=O)CC1` was 4.18 µM. The value for `COc1cc(C(=O)N/N=C(\c2ccccc2)c2ccccn2)cc(OC)c1OC` was 13.8 µM. As to `CCN(CC)S(=O)(=O)c1cccc(C(=O)N/N=C/c2ccc([N+](=O)[O-])o2)c1`, the AC50 was 14.1 µM. The value for `CN=c1scc(-c2ccccc2F)n1/N=C/c1ccc[nH]1` was 0.019 µM; that for `O=C(CCCc1ccccc1)Nc1cccc(C(=O)O)c1` was 4.42 µM. As to `COc1ccc2nc(C)cc(NCc3cccc(C(F)(F)F)c3)c2c1`, the AC50 was 18.2 µM. `O=C1CCC2S/C(=C/Nc3ccc(C(F)(F)F)cc3)C(=O)N12` (stereo not given): the AC50 is 3.57 µM. The value for `O=C(N/N=C/c1ccc([N+](=O)[O-])s1)c1ccccc1Br` was 3.65 µM. In the case of `CCN1CCCC1CNC(=O)c1ccc2c(c1)NC(=O)/C(=C\c1ccc(OC)c(OC)c1)S2` (stereo not given), the AC50 is 13.8 µM. In the case of `CC(C)(C)c1ccc(C(=O)Nc2sc3c(c2C(=O)O)CCC3)cc1` it was 2.09 µM. In the case of `C/C(=N\NC(=O)COc1ccccc1-c1ccccc1)c1ccccn1` it was 4.58 µM. The value for `Cc1scc(C(=O)N/N=C/c2ccc([N+](=O)[O-])o2)c1C` was 2.19 µM; that for `C=C1C(=O)O[C@@]23[C@H]1CC[C@@H](C)[C@@H]2CC[C@@]1(C)O[C@@H]31` was 5.22 µM. On to `CC(=O)N1CCc2c(sc(NC(=O)c3ccc([N+](=O)[O-])o3)c2C#N)C1`, for which the AC50 is 2.22 µM. With `CCN(Cc1ccccc1)c1ccc(/C=N/N=C(N)N)cc1`, the AC50 was 6.37 µM. In the case of `N#C/C(=C\C=C\c1ccccc1[N+](=O)[O-])C(=O)NCc1ccccc1` it was 14.7 µM; in that of `Cc1ccc(NC2=C(Cl)C(=O)c3ccccc3C2=O)cc1`, 5.25 µM. In the case of `CCOc1ccc(/C=C2\SC(=S)N(CCC(=O)O)C2=O)cc1` it was 0.577 µM; in that of `CCN1CCN(c2ccc(S(=O)(=O)N3CCOCC3)cc2NC(=O)/C=C/c2ccc([N+](=O)[O-])cc2)CC1`, 8.13 µM; in that of `COc1cccc(NC(=O)c2cc3c(=O)n4ccccc4nc3n(CC(C)C)c2=N)c1`, 7.02 µM. In the case of `OCCNc1c2ccccc2nc2c(F)c(F)c(F)c(F)c12` it was 4.14 µM; in that of `CC1=NNC(=O)/C1=C\c1cn(-c2ccccc2)nc1-c1ccc(F)cc1`, 6.52 µM. On to `N#C/C(=C(/O)c1ccc([N+](=O)[O-])o1)c1nc2ccccc2[nH]1`, for which the AC50 is 3.8 µM. Consider `O=C(CCl)Nc1cn(-c2ccccc2)nc1-c1ccccc1`, for which the AC50 is 14.5 µM.

With `Cc1ccc(C(C)C)c(OCc2nn(CC(=O)c3ccc(OC(F)F)cc3)c3[n+]2CCCCC3)c1`, the AC50 is 9.17 µM.

As for `N#C/C(=C\C=C\c1ccccc1[N+](=O)[O-])C(=O)NC1CCCCC1`, the AC50 was 7.8 µM. The value for `O=C(N/N=C/c1ccc(O)c2ncccc12)c1cccc(Br)c1` was 7.28 µM; that for `Cc1cc(C(=O)CCl)c(C)n1CCc1ccc(F)cc1` was 4.25 µM; that for `C=CCC(Nc1ccccc1)C12C=CC(O1)C(C(=O)OC)=C2C(=O)OC` (stereo not given) was 11.7 µM. In the case of `O=C(O)c1ccc(C(=O)Nc2ccc(F)cc2)cc1` it was 19.8 µM; in that of `O=C1NC2c3c(I)sc(I)c3C(=O)C2O1` (stereo not given), 15.5 µM; in that of `CC(C)(C)c1ccc(-c2noc(CCC(=O)NCC3CCCO3)n2)cc1` (stereo not given), 0.275 µM. In the case of `O=C1C(Cl)=C(Nc2ccccc2)C(=O)c2ccccc21` it was 2.88 µM. For `O=C(Nc1ccc(Cl)cc1)Nc1cccc(C(=O)O)c1`, the AC50 was 3.79 µM. In the case of `O=C(CCl)N(c1ccccc1)C1CCCCC1` it was 4.51 µM. In the case of `OCCNc1c2ccccc2nc2ccccc12` it was 7.28 µM; in that of `Cc1cc(/C=C2\Sc3ccccc3N2C)cc(C)[n+]1CC1CCCO1` (stereo not given), 1.82 µM; in that of `O=C(Nc1cccc(Cl)c1)Nc1cc(S(=O)(=O)N2CCCCC2)ccc1Cl`, 12 µM. The value for `COc1cc(/C=C/C(=O)c2ccc3c(c2)OCCO3)cc(Br)c1OCC(=O)N(C)C` was 6.17 µM; that for `Cn1nnnc1Sc1ncnc2scc(-c3ccc[nH]3)c12` was 7.32 µM; that for `CCOC(=O)c1c(C)oc2c(F)c(F)c(F)c(F)c2c1=O` was 2.32 µM. With `Cc1ccc(NCC(=O)N/N=C\c2ccc([N+](=O)[O-])o2)cc1`, the AC50 is 19.1 µM.

In the case of `CN(C)c1cc[n+](CC(=O)c2ccc(-c3ccccc3)cc2)cc1`, the AC50 was 2.6 µM.

For `COc1ccccc1NS(=O)(=O)c1cccc(C(=O)N/N=C/c2ccc([N+](=O)[O-])o2)c1`, the AC50 was 4.3 µM.

As for `O=C(Cn1cc(/C=C\[N+](=O)[O-])c2ccccc21)Nc1ccccc1`, the half-maximal activity concentration (AC50) was 7.46 µM.

The values above are taken from PubChem BioAssay AID493102 (Broad Institute, 2011).
